The source of these data is article PMC5342555, “ATAD2 is an epigenetic reader of newly synthesized histone marks during DNA replication” (Oncotarget, 2016).

The subject of one test is MCF7 cells. Kind of test: Cell growth, viable cells by AlamarBlue. It is filed as cell-based. The following applies: MCF7, 4 days after transfection, mean ± SD, n = 3.
The test system of a further test is HEK293 cells. Kind of test: Isolation of proteins on nascent DNA (iPOND) after cycloheximide. The class given is cell-based. How it is done:
iPOND was performed as previously described. Briefly, exponentially growing 1 x 10^8 of HEK 293 cells were incubated with 10 μM EdU (5-ethynyl-2'-deoxyuridine) and fixed in 1 % formaldehyde for 20 min at RT after 20 min (nascent chromatin) or chased for 2 h in fresh medium before fixation (mature chromatin). Crosslinking was stopped by addition of 0.125 M glycine and cells were permeabilized in 0.25 % Triton-X-100 for 30 min at RT followed by Click reaction to couple biotin to EdU. Cells were incubated in Click reaction buffer (0.01 mM biotin azide, 10 mM sodium ascorbate, 2 mM CuSO4 in PBS) for 1-2 h at RT with constant mixing. Cells were lysed in lysis buffer (1 % SDS in 50 mM Tris pH 8.0) and chromatin was solubilized by sonication in BIORUPTOR (Diagenode) for 4 min with medium frequency and 0.5 intervals at 4 °C. Biotinylated chromatin fragments were purified on streptavidine-dynabeads (ThermoFisher) by overnight end-over-end rotation at 4 °C. After stringent washing including once with 1 M NaCl the bound chromatin was released and crosslinking was reversed by boiling the beads in 2X LDS buffer for 40 min at 100 °C. Samples were dissolved in NuPAGE Bis-Tris gel and Western blot was performed.

The test system of a further test is endogenous ATAD2. Kind of test: Peptide pull down from MCF7 nuclear extract. It is filed as binding. The following applies: immobilized histone peptides, nuclear extract from MCF7 cells. How it is done:
H4 peptides (1-25) conjugated with Biotin was immobilized on Streptavidin-coupled Dynabeads for 2 hours at 4 °C and incubated with nuclear extract from MCF7 cells. Nuclear extract was prepared by first isolating nucleus in hypotonic buffer (10 mM Tris-HCl pH 8.5, 10 mM NaCl, 0.5 mM TCEP and 0.1 % NP-40) and disrupting nuclear envelop in high salt buffer (20 mM Tris-HCl pH 8.5, 420 mM NaCl, 0.5 mM TCEP, 0.1 % Triton X-100, 25 % Glycerol) for 2 hours at 4 °C. Soluble nuclear extract was harvested by centrifugation at 20000 g for 20 min and diluted to 1:3 in buffer without NaCl in order to achieve physiological salt concentration, 140 mM. The nuclear extract was incubated with the immobilized peptides on the Streptavidin-Dynabeads overnight at 4 °C. Next day, the beads were washed three times with washing buffer (20 mM Tris-HCl pH 8.5, 140 mM NaCl, 0.5 mM TCEP, 0.1 % Triton X-100, 25 % Glycerol) and twice with high salt buffer. Bound proteins were recovered by boiling the beads in 1X sample buffer for 5 min. at 95 °C and analyzed by SDS-PAGE and Western Blotting. For direct binding experiments 1 μM of immobilized histone peptides on Streptavidin-Dynabeads were incubated with indicated amounts of ligands for 2 hours at 4 °C. After stringent washing as described above, bound proteins were analyzed in Western Blotting.

The test system of another test is GST-ATAD2-BD WT. Kind of test: TR-FRET binding of biotinylated peptides to WT bromodomain. The arrangement: species or system human. The conditions noted are these: for interaction with WT BD (TR-FRET, Figure 5C): 10 nM GST-ATAD2-BD WT, peptides at 100 nM and 1 μM. How it is done:
(§1) TR-FRET measurements of GST-ATAD2 BD^981-1108 binding to the biotinylated synthetic peptides (Anaspec and Biosyntan) described in Supplementary Table S1 (SI Materials and Methods) were basically carried out as described recently for BRD4. For binding and competition experiments the concentration of GST-ATAD2 was 10 nM. Biotinylated peptides were tested in binding experiments at 100 nM and 1 μM, whereas the biotinylated H4K12ac tracer ([…]-K(Ac)-[…]-Biotin) was used at 50 nM in competition assays. […] All assays were performed in 50 mM HEPES pH 7.5, 100 mM NaCl, 50 mM KF, 0.25 mM CHAPS, 0.05 % BSA and 1 mM DTT and protein-peptide equilibrium complexes were detected with 10 nM of Anti-GST-XL665 MAb conjugate (Cisbio) and 2.5 nM of SA-Eu3+ Chelate (Perkin Elmer) as TR-FRET acceptor and donor molecules respectively. Raw fluorescence signals were acquired with a Pherastar FS microtiter plate reader (BMG) with 337 nm (excitation), 622 nm (donor emission) and 665 nm (acceptor emission). HTRF® ratio values were calculated as defined in the instrument software and normalized with low and high controls whenever appropriate. Competition experiments were analyzed with a four parameter logistic equation as defined in the GraphPad analysis software (http://www.graphpad.com/guides/prism/6/curve-fitting).
For orientation: Time-resolved FRET reads energy transfer from a long-lived donor to a nearby acceptor.

The next test concerns GST-ATAD2-BD Mut. Kind of test: TR-FRET binding of biotinylated peptides to mutant bromodomain. The arrangement: species or system human. The following applies: 10 nM GST-ATAD2-BD Mut. How it is done: as §1

“Also recorded” adds a separate entry of the source.

Consider “5’-AGAUCACCCUCCUUAAAUAUU-3’ [PLK1]”, for which the “viable cells, fluorescence intensity normalized to control siRNA treated cells” value with MCF7 cells turned out to be 38.5%.
On to `C[C@@H]1C[C@@H]([C@H](O)CC2CC(=O)NC(=O)C2)C(=O)[C@@H](C)C1` [cycloheximide], for which the “recruitment of ATAD2 to nascent chromatin” value with HEK293 cells (HEK293, 250 μg/ml CHX […] before 10 μM EdU 20 min 37 °C, iPOND) is “abrogated”. Further, in the test on HEK293 cells (HEK293, CHX […], iPOND), the “newly synthesized histone H4 acetylated at K12 on nascent chromatin” value is reported as “lost”. For the same compound, the “total level of ATAD2” value with HEK293 cells (HEK293, CHX, Western blotting before crosslinking) is given as “unaffected”.
In the case of “H4 (1-25): biotinylated unmodified histone H4 peptide, AnaSpec Cat. No. 65242-1”, the “interaction with endogenous ATAD2 (pull down, Western blotting)” value in the test with endogenous ATAD2 is on record as “not”.
As to “H4K5,12diac (1-25): biotinylated histone H4 peptide di-acetylated at K5 and K12”, the “interaction with WT BD (TR-FRET, Figure 5C)” value (shortened to “interaction with WT BD”) in the test with GST-ATAD2-BD WT is listed as “interact”. Further, the “interaction with endogenous ATAD2 (pull down, Western blotting)” value in the test on endogenous ATAD2 is recorded as “interacts”. In the test on GST-ATAD2-BD Mut, the “interaction with mutant BD (TR-FRET, Figure 5C)” value (“interaction with mutant BD” below) is “not with mutant BD”.
As to “H4K5/8/12/16ac (1-25): biotinylated histone H4 peptide acetylated at K5,8,12,16, AnaSpec Cat. No. 65248-1”, the “interaction with WT BD” value in the test with GST-ATAD2-BD WT is given as “interact”. The “interaction with mutant BD” value in the test with GST-ATAD2-BD Mut was “not with mutant BD”.
Consider “H4K5ac (1-25): biotinylated histone H4 peptide acetylated at K5, AnaSpec Cat. No. 65229-1”, for which the “interaction with WT BD” value in the test with GST-ATAD2-BD WT is “strong binding; also recorded: interact”. The “interaction with mutant BD” value in the test with GST-ATAD2-BD Mut is “not with mutant BD”.
As to “H4K12ac (1-25): biotinylated histone H4 peptide acetylated at K12, AnaSpec Cat. No. 65208-1”, in the test on GST-ATAD2-BD WT, the “interaction with WT BD” value is reported as “strong binding; also recorded: interact”. In addition, the “interaction with BD of ATAD2 (TR-FRET, Figure 5B)” value in the test on GST-ATAD2-BD WT (1 μM biotin-labelled peptide, 10 nM GST-ATAD2 BD, GST as control) is reported as “strong interaction”. Further, the “interaction with mutant BD” value with GST-ATAD2-BD Mut was “not with mutant BD”.
